{"source": "patent US12263248B2", "about": "“Compounds and compositions for intracellular delivery of therapeutic agents” (ModernaTX, Inc., priority 2018, dated 2025)", "key": {"[1]": {"conditions": "rat, MC3-based mRNA containing LNP, 0.3 mg/kg dose mRNA; cited from earlier work"}, "[2]": {"assay": "MC3 single cell necrosis in rat liver and liver enzymes", "type": "in vivo, rats", "conditions": "rat liver", "method": "FIG. 37 is a series of graphs illustrating MC3 single cell necrosis in rat liver and liver enzyme. The top row is a pair of images of livers of rats administered with 0.3 mg/kg of a […] (LNP) not containing an mRNA (right) and PBS (phosphate buffered saline) as a control (left). The bottom row is a pair of graphs showing expression of ALT (left) and AST(right) in the liver following administration of a 0.3 mg/kg of a MC3-based LNP containing an mRNA."}, "[3]": {"assay": "Lipid tissue accumulation in NHP after a single dose", "conditions": "12 hours post dose"}, "[4]": {"assay": "Tissue distribution and liver tissue clearance of lipid after weekly intravenous doses to CD-1 mice", "type": "in vivo", "conditions": "liver tissue, 0.25 mg/kg mRNA, weekly dosing", "text": "FIGS. 30A-30C are a series of graphs showing the pharmacokinetic and expression profile of Compound 18 after multiple doses. FIG. […]\nFIGS. 35A and 35B are a pair of graphs comparing the tissue distribution of MC3 and compound 18."}, "[5]": {"assay": "One-month toxicological evaluation with weekly dosing in cynomolgus monkey", "type": "in vivo", "method": "Serum ALT and AST levels: Samples were analyzed using a Modular Analytics analyzer.\n(§1) Serum C5b9 levels: C5b9 sample analysis was performed using an ELISA method. The kit used was Human C5b-9 ELISA Set and Reagent Set B from BD Bioscience. Study samples were analyzed in singlicate diluted 1/100.\nbDNA for measurement of mRNA levels: mRNA sample analysis (bDNA method) was performed using the QuantiGene® 2.0 Reagent System kit from Affymetrix. Study samples were lysed prior to analysis using the QuantiGene Sample Processing Kit (Blood samples). Study samples were analyzed in duplicate diluted between 1/100 and 1/1250000.\nNext, tolerability and safety of the compound 18-based LNPs in vivo was tested. A full toxicological evaluation of compound 18-based LNPs in both Sprague Dawley rat and cynomolgus monkey was performed using a standard one-month study with weekly dosing at three dose levels in each species. Rats were dosed at 0.05, 0.5, and 2 mg/kg and a non-human primates was dosed at 0.1, 0.3, and 1 mg/kg. LNP-related toxicities associated with MC3-based LNP systems are generally associated with immunological (cytokine and complement activation) and hepatic injury. […] FIGS. 32 and 33 highlight the day 30 levels of alanine transferase (ALT, FIG. 32A) and aspartate aminotransferase (AST, FIG. 32B), two indicators of liver damage."}, "[6]": {"tested_on": "C5b9", "assay": "Complement activation indicators in non-human primates", "type": "in vivo, Cynomolgus monkeys", "method": "(§2) The tolerability and efficacy of nanoparticle compositions to non-human primates was also investigated using a sample formulation including Compound 18. The formulation was prepared according to the standard MC3 formulation described above and included an hEPO mRNA. Primates were administered a single dose of 0.05 (Group 1), 0.3 (Group 2), or 1.0 (Group 3) mpk via intravenous infusion for 60 minutes. Three primates were administered each dose. Expression of hEPO was measured prior to dosing and at 2, 6, 24, 48, and 96 hours post-treatment (Table 26). Table 28 includes levels of indicators of complement activation, while Table 29 includes cytokine induction data.\nas §1"}, "[7]": {"tested_on": "human hepatocytes", "assay": "Metabolite profiling of Compound 18 with human hepatocytes", "type": "in vitro ADME", "set-up": "key to Detection in incubation: +: Detected; ND: Not detected", "conditions": "Compound 18 (10 μM), human hepatocytes", "method": "The results of metabolic profiling and characterization for compound 18 incubated with human hepatocytes or human plasma are summarized in Tables 41 and 42, respectively."}, "[8]": {"assay": "Metabolite identification of Compound 18 in human plasma", "type": "in vitro ADME", "set-up": "key to Detection in incubation: +: Detected; ND: Not detected", "conditions": "for Detection in incubation: Compound 18 (10 μM), human plasma", "method": "Metabolite Identification: Compound 18 (10 μM) was incubated with human plasma (29.0 mg protein/incubation) in incubation mixtures (200 μL final incubation volume) that consisted of 50/50v/v neat plasma (undiluted)/substrate solution in 50 mM phosphate buffer, pH 7.4). The plasma was obtained from male and female donors and contained K2EDTA anticoagulant. Reactions were started by addition of the substrate solution to human plasma and were stopped at four designated time points (0, 30, 60 and 90 min) by the addition of 600 μL of stop reagent (acetonitrile). Stopped incubation samples were centrifuged (e.g., 10,000×g for 10 min at 10° C.) and the supernatant fractions were analyzed by LC-MS/MS to characterize the metabolites formed from compound 18. Additional incubations were performed with the positive control procaine (5 μM) to establish competency of the test system. Samples were analyzed by LC-MS/MS."}, "[9]": {"assay": "Tolerability of Compound 18 formulation in non-human primates, single dose", "type": "in vivo", "method": "as §2\nIn general, lower doses were better tolerated. High doses induced body temperature elevation and hunched posture, which is similar to the behavior observed for primates administered higher doses of MC3 formulations."}, "[10]": {"conditions": "0.3 mg/kg of MC3-based LNP containing an mRNA"}, "[11]": {"conditions": "single dose 0.05, 0.3 or 1.0 mpk, i.v. infusion 60 minutes"}}}
{"molecule": "CCCCC/C=C\\C/C=C\\CCCCCCCCC(CCCCCCCC/C=C\\C/C=C\\CCCCC)OC(=O)CCCN(C)C", "note": "[MC3, DLin-MC3-DMA, reference compound]", "values": [{"measurement": "ALT, AST and pathology", "setting": "[1]", "value": "ALT and AST were elevated and pathology showed evidence of necrosis"}, {"measurement": "pathology", "setting": "[2]; 0.3 mg/kg MC3-based LNP", "value": "evidence of necrosis"}, {"measurement": "ALT", "setting": "[2]; [10]", "value": "elevated"}, {"measurement": "AST", "setting": "[2]; [10]", "value": "elevated"}]}
{"molecule": "CCCCCCCCCOC(=O)CCCCCCCN(CCO)CCCCCCCC(=O)OC(CCCCCCCC)CCCCCCCC", "note": "[Compound 18, Heptadecan-9-yl 8-((2-hydroxyethyl)(8-(nonyloxy)-8-oxooctyl)amino)octanoate]", "values": [{"measurement": "lipid levels in tissues", "setting": "[3]", "value": "significantly lower levels"}, {"measurement": "primary metabolite", "setting": "[4]", "value": "compound 166"}, {"measurement": "ALT and AST levels", "setting": "[5]; 1 mg/kg dose, day 30", "value": "at the same level as the control"}, {"measurement": "C5b9 levels", "setting": "[5]; after dose 1 or dose 5", "value": "no significant change"}, {"measurement": "C3a", "setting": "[6]; 0.05 mpk, 2 h", "value": 19236, "unit": "ng/mL"}, {"measurement": "C5b9", "setting": "[6]; 0.05 mpk, 24 h", "value": 265, "unit": "ng/mL"}, {"measurement": "C5b9", "setting": "[6]; 0.05 mpk, Day 5", "value": 163, "unit": "ng/mL"}, {"measurement": "C3a", "setting": "[6]; 0.05 mpk, Predose", "value": 10600, "unit": "ng/mL"}, {"measurement": "C3a", "setting": "[6]; 0.3 mpk, 2 h", "value": 42897, "unit": "ng/mL"}, {"measurement": "C5b9", "setting": "[6]; 0.3 mpk, 24 h", "value": 614, "unit": "ng/mL"}, {"measurement": "C5b9", "setting": "[6]; 0.3 mpk, Day 5", "value": 405, "unit": "ng/mL"}, {"measurement": "C3a", "setting": "[6]; 0.3 mpk, Predose", "value": 9827, "unit": "ng/mL"}, {"measurement": "C3a", "setting": "[6]; 1.0 mpk, 2 h", "value": 75936, "unit": "ng/mL"}, {"measurement": "C5b9", "setting": "[6]; 1.0 mpk, 24 h", "value": 4798, "unit": "ng/mL"}, {"measurement": "C5b9", "setting": "[6]; 1.0 mpk, Day 5", "value": 534, "unit": "ng/mL"}, {"measurement": "C3a", "setting": "[6]; 1.0 mpk, Predose", "value": 12792, "unit": "ng/mL"}, {"measurement": "Detection in incubation", "setting": "[7]; 0 min", "value": "+"}, {"measurement": "Detection in incubation", "setting": "[7]; 60 min", "value": "+"}, {"measurement": "Detection in incubation", "setting": "[7]; 120 min", "value": "+"}, {"measurement": "Detection in incubation", "setting": "[7]; 240 min", "value": "+"}, {"measurement": "Detection in incubation", "setting": "[8]; 0 min", "value": "+"}, {"measurement": "Detection in incubation", "setting": "[8]; 30 min", "value": "+"}, {"measurement": "Detection in incubation", "setting": "[8]; 60 min", "value": "+"}, {"measurement": "Detection in incubation", "setting": "[8]; 90 min", "value": "+"}, {"measurement": "initial step of metabolism", "setting": "[8]; in vitro metabolite identification studies", "value": "primary ester hydrolysis to compound 166"}, {"measurement": "reticulocyte counts", "setting": "[9]; all groups, Day 5", "value": "marked increase"}, {"measurement": "tolerability of the formulation", "setting": "[9]; non-human primates, single dose", "value": "tolerated similarly to the MC3 formulation"}, {"measurement": "Complement activation and cytokine release (IL-6 and MCP-1)", "setting": "[9]; single dose 0.05, 0.3 or 1.0 mpk", "value": "dose-related and reversible"}, {"measurement": "Alanine aminotransferase (ALT) levels", "setting": "[9]; [11]", "value": "did not increase"}, {"measurement": "Aspartate aminotransferase (AST)", "setting": "[9]; [11]", "value": "increased in the high dose group on Day 2 and returned to baseline by Day 5"}]}
